Measured values as given in the supplement of paper PMC7023306.
± gives the uncertainty stated by the source.

Assay: TIMS collision cross section in N2 (TIMS CCS N2); higher = larger gas-phase ion size
Details: drift gas: N2 (99.4% N2, 0.6% O2), calibration: Stow et al. 2017 values for Agilent ESI-L Low Concentration Tune Mix, ionization: negative ESI

TIMS collision cross section in N2 (ion species: [M-H+Na+HCO2H]-) | TIMS collision cross section in N2 (ion species: [M-H]-) | TIMS collision cross section in N2 (ion species: [M-H+HCO2H]-) | TIMS collision cross section in N2 (ion species: [M-3H]-) | TIMS collision cross section in N2 (ion species: [2M-H]-) | SMILES
199.45 ± 0.091 Å² | 182.82 ± 0.12 Å² |  |  |  | COc1ccc(-c2cc(=O)c3c(O)c(OC)c(O)c(OC)c3o2)cc1 [nevadensin]
 | 168.54 ± 0.27 Å² |  |  |  | COc1cc(O)c2c(c1)O[C@H](c1ccc(O)cc1)CC2=O [sakuranetin]
209.41 ± 0.26 Å² | 193.54 ± 0.18 Å² |  |  |  | COc1cc(-c2cc(=O)c3c(O)c(OC)c(O)c(OC)c3o2)cc(O)c1OC [scaposin]
 |  |  | 206.59 ± 0.074 Å² |  | O=C(O)[C@H]1O[C@@H](Oc2cc3oc(-c4ccc(O)cc4)cc(=O)c3c(O)c2O)[C@H](O)[C@@H](O)[C@@H]1O [scutellarin (Scutellarein-7-glucuronide)]
 | 201.63 ± 0.24 Å² |  |  |  | COc1cc([C@@H]2Oc3c(O)cc([C@H]4Oc5cc(O)cc(O)c5C(=O)[C@@H]4O)cc3[C@H]2CO)ccc1O [silychristin]
 |  | 224.66 ± 0.27 Å² |  |  | CC1(C)C[C@H]2C3=CC[C@@H]4[C@@]5(C)CC[C@H](O)[C@](C)(CO)[C@@H]5CC[C@@]4(C)[C@]3(C)CC[C@@]2(C)[C@H](O)[C@@H]1O [soyasapogenol A]

The remaining lines, values behind:

SMILES | TIMS collision cross section in N2 (ion species: [M-H+Na+HCO2H]-) | TIMS collision cross section in N2 (ion species: [M-H]-) | TIMS collision cross section in N2 (ion species: [M-H+HCO2H]-) | TIMS collision cross section in N2 (ion species: [M-3H]-) | TIMS collision cross section in N2 (ion species: [2M-H]-)
C[C@H]1[C@H](C)CC[C@]2(C(=O)O)CC[C@]3(C)C(=CC[C@@H]4[C@@]5(C)CC[C@H](O)C(C)(C)[C@@H]5CC[C@]43C)[C@H]12 [Ursolic acid] | 229.46 ± 0.98 Å² | 218.03 ± 0.74 Å² |  |  | 
O=c1cc(-c2ccc(O)cc2)oc2cc(O[C@@H]3O[C@H](CO)[C@@H](O)[C@H](O)[C@H]3O[C@@H]3OC[C@](O)(CO)[C@H]3O)cc(O)c12 [apiin] |  | 223.96 ± 0.26 Å² |  |  | 
CC1(C)CC[C@]2(C(=O)O)CC[C@]3(C)C(=CC[C@@H]4[C@@]5(C)C[C@H](O)[C@H](O)[C@@](C)(CO)[C@@H]5CC[C@]43C)[C@@H]2C1 [bayogenin] |  | 225.09 ± 0.24 Å² | 234.73 ± 0.27 Å² |  | 
C[C@@H]1O[C@@H](O[C@H]2[C@H](Oc3cc(O)c4c(c3)O[C@H](c3ccc(O)c(O)c3)CC4=O)O[C@H](CO)[C@@H](O)[C@@H]2O)[C@H](O)[C@H](O)[C@H]1O [eriodictyol-7-neohesperidoside] | 234.56 ± 0.42 Å² | 222.66 ± 0.095 Å² |  | 222.52 ± 0.16 Å² | 
O=c1c(O)c(-c2ccccc2)oc2cc(O)cc(O)c12 [galangin] |  | 156.93 ± 0.11 Å² |  |  | 238 ± 0.12 Å²
CC(C)=CCc1c(O)ccc2c1O[C@H](c1ccc(O)cc1)CC2=O [isobavachin] |  | 185.17 ± 0.47 Å² |  |  | 237.66 ± 0.46 Å²
O=c1c(O[C@@H]2O[C@H](CO)[C@@H](O)[C@H](O)[C@H]2O)c(-c2ccc(O)cc2)oc2cc(O)cc(O)c12 [kaempferol-3-O-glucoside] | 222.09 ± 0.65 Å² | 200.44 ± 0.33 Å² |  |  | 279.93 ± 1.2 Å²
O=c1c(O)c(-c2ccc(O)cc2)oc2cc(OC3OC(CO)C(O)C(O)C3O)cc(O)c12 (stereo unspecified) [kaempferol-7-O-glucoside] | 230.04 ± 0.3 Å² | 209.17 ± 0.14 Å² |  |  | 283.76 ± 0.75 Å²
CC1(C)CC[C@]2(C(=O)O)CC[C@]3(C)C(=CC[C@@H]4[C@@]5(C)C[C@H](O)[C@H](O)[C@@](C)(C(=O)O)[C@@H]5CC[C@]43C)[C@@H]2C1 [medicagenic acid] | 243.47 ± 0.081 Å² | 226.23 ± 0.27 Å² |  |  | 
CCCCCCCCCCO[C@@H]1O[C@H](CO)[C@@H](O)[C@H](O)[C@H]1O [n-Decyl-beta-D-glucopyranoside] |  | 189.39 ± 0.39 Å² | 198.21 ± 0.31 Å² |  | 277.92 ± 0.32 Å²
CCCCCCCCO[C@@H]1O[C@H](CO)[C@@H](O)[C@H](O)[C@H]1O [n-Octyl-beta-D-glucopyranoside] |  | 181.3 ± 0.15 Å² | 190.02 ± 0.2 Å² |  | 272.83 ± 0.74 Å²
CCCCCCCCCCCCC(=O)O [n-Tridecanoic acid] |  | 159.43 ± 0.061 Å² |  |  | 
COc1ccc(CCC(=O)c2c(O)cc(O[C@@H]3O[C@H](CO)[C@@H](O)[C@H](O)[C@H]3O[C@@H]3O[C@@H](C)[C@H](O)[C@@H](O)[C@H]3O)cc2O)cc1O [neohesperidin dihydrochalcone] |  | 232.21 ± 0.35 Å² |  |  | 
